Laboratory results reported in ChEMBL document CHEMBL1148354, “Dye-labeled benzodiazepines: development of small ligands for receptor binding studies using fluorescence correlation spectroscopy” (J Med Chem, 2004).
“And” between values parts separate entries of the source, which are not always exact repeats. Equal values may be shown once.

Legend:
[1] = molecular target: GABA-A receptor; anion channel; assay: Binding affinity for GABA-A benzodiazepine receptor of rat hippocampal neurons; type: tissue-based, Hippocampus
[2] = molecular target: T1, GABA-A receptor; anion channel (Rattus norvegicus) (UniProt O09028+P15431+P18506+P18508+P19969+P20236+P23574+P23576+P28471+P28473+P30191+P62813+P63079+P63138+Q91ZM7+Q9ES14); assay: Percent binding to GABA-A benzodiazepine receptor of rat hippocampal neurons at 2 nM; type: tissue-based; conditions: Hippocampus
[3] = molecular target: T1, GABA-A receptor; anion channel (Rattus norvegicus); assay: Saturation binding for benzodiazepine receptor of rat hippocampal neurons; type: tissue-based; conditions: Hippocampus
[4] = molecular target: T1, GABA-A receptor; anion channel (Rattus norvegicus); assay: Non-specific binding to GABA-A benzodiazepine receptor of rat hippocampal neurons after co-incubation with 1 uM midazolam (range is 7-10%); type: tissue-based; conditions: Hippocampus

CC1N=c2c(cc3c(c2S(=O)(=O)O)Oc2c(cc4c(c2S(=O)(=O)O)NC(C)C4(C)C)C=3c2ccc(C(=O)NCCN3C(=O)CN=C(c4ccccc4F)c4cc(Cl)ccc43)cc2)C1(C)C (centres undefined)
Kd [1]: 97.2 nM and 9.9 nM
Binding [2]: 90%
Concentration [3]: 120 nM
Binding [4]: 10%
